Molecular target: T1, scavenger receptor A (Mus musculus, UniProt P30204)
T1 construct: endogenous in cells; host or cells: Raw 264.7 macrophages
T1 sequence (P30204 1-458): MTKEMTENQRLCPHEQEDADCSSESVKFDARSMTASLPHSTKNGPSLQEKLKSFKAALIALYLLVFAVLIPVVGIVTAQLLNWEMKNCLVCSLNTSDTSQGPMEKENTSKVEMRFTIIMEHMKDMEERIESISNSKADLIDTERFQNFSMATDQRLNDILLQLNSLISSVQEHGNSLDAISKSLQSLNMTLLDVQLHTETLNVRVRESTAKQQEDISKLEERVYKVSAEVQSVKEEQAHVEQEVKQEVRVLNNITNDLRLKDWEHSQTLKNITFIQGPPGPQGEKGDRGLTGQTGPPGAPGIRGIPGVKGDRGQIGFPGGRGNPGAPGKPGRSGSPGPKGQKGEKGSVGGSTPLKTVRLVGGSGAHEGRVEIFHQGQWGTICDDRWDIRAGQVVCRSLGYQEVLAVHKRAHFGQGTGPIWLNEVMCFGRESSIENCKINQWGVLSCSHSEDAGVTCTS
Assay: Competitive inhibition of polymer-488 cell uptake by poly I / poly C in Raw 264.7 macrophages
Type: cell-based
Conditions: for inhibition of polymer-488 fluorescence (% control): Raw 264.7 cells, various inhibitor concentrations, polymer-488 constant, 37° C. 3 hours, FIG. 4; for inhibition of scavenger receptor interaction of polymer-488 (fluorescence): Raw 264.7 macrophages, various concentrations of polymer-488, with or without inhibitor, FIG. 3
Method: The fluorescently labelled poly(L-lysine succinylated) was also tested for cell uptake in a macrophage cell line Raw 264.7 in the presence of competitive inhibitors and relevant controls. […] At higher concentrations of polymer-488, fluorescence is seen due to competing off the poly I.
In a follow up study, cells were treated with various concentrations of either poly I or poly C while polymer-488 concentration remained constant. In this study, Raw 264.7 cells were incubated overnight at 400,000 cells/mL. The cells were then treated with various concentrations of polymer-488 and either 200 μg/mL poly I, 200 μg/mL poly C, or no inhibitor. The cells were incubated at 37° C. for 3 hours, washed 3 times with media, and fluorescence measured.

inhibition of polymer-488 fluorescence (% control)	Substance	inhibition of scavenger receptor interaction of polymer-488 (fluorescence)
virtually no inhibition of fluorescence	polycytidylic acid [poly C]	not with poly C
dose-dependent inhibition	polyinosinic acid [poly I]	inhibition of scavenger receptor interaction

— patent US20230241232A1, “Size-Dependent Brain and Lymphatic Distribution of Macromolecular Drug Delivery Platform” (The United States of America, As Represented by the …, priority 2020, published 2023)
